The text below walks through data of EP1568373A2, “Inducing cellular immune responses to HER2/neu using peptide and nucleic acid compositions” (priority 1999, dated 2001).

A word on the IC50: it is the concentration at which inhibition is half-maximal. Read a high IC50 as weaker potency in that assay.

One test has as its system CD8+ T-cells. Briefly: Primary in vitro CTL induction with peptide-pulsed DC, 51Cr release and in situ IFNγ assays. Type of test: cell-based, human. The method, then:
The colon adenocarcinoma cell lines SW403 and HT-29 were obtained from the American Type Culture Collection (ATCC) (Rockville, MD). The cell lines that were obtained from ATCC were maintained under the culture conditions recommended by the supplier. […] The colon cancer cells were treated with 100U/ml IFNγ (Genzyme) for 48 hours at 37°C before use as targets in the ^51Cr release and in situ IFNγ assays.
The monocytes were purified by plating 10 x 10^6 PBMC/well in a 6-well plate. After 2 hours at 37°C, the non-adherent cells were removed by gently shaking the plates and aspirating the supernatants. The wells were washed a total of three times with 3 ml RPMI to remove most of the non-adherent and loosely adherent cells. Three ml of complete medium containing 50 ng/ml of GM-CSF and 1,000 U/ml of IL 4 were then added to each well. […]
Induction of CTL with DC and Peptide: CD8+ T-cells were isolated by positive selection with Dynal immunomagnetic beads (Dynabeads® M-450) and the detacha-bead® reagent. […] The DC were collected and centrifuged at 1300 rpm for 5-7 minutes, washed once with PBS with 1% BSA, counted and pulsed with 40µg/ml of peptide at a cell concentration of 1-2×10^6/ml in the presence of 3µg/ml ß2- microglobulin for 4 hours at 20°C. The DC were then irradiated (4,200 rads), washed 1 time with medium and counted again. […]

In the next test the target is DRB1*0301 (DR3) (Homo sapiens, UniProt P01903+P01911, A100K/A102G/A103R/A169T/F55Y/I96L/K41T/L162R/M171V/P40S/Q125H/Q178H/Q39Y/R42S/S66N/T106N/T262R/W38E/Y61H). Kind of test: HLA class II binding assay, purified HLA molecules. The conditions noted are these: Table XXX.
Chain of DRB1*0301 (DR3) (P01903 26-254 limits assumed, other chains not shown): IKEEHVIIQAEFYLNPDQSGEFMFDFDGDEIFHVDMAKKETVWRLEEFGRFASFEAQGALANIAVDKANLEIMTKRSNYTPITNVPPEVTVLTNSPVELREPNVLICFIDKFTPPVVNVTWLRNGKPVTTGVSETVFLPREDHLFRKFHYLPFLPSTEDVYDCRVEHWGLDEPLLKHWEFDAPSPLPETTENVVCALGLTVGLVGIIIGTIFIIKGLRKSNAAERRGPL
For another test, the target named is DRB1*0401 (DR4w4) (Homo sapiens, UniProt P01903+P01911, A100K/A169T/F76Y/I96L/K127E/L162R/M171V/N62H/P40V/Q125Y/R42H/S133A/S149N/S66Y/V115G/V209L/W38E). Kind of test: HLA class II binding assay, purified HLA molecules. The note with it: Her2/neu DR supertype primary binding, Table XXVIII.
The target in the next test is DRB1*0101 (DR1) (Homo sapiens, UniProt P01903+P01911, A100R/D57E/F55L/F60I/F76Y/I96L/L162R/M171V/P40L/Q125E/R42F/V115G/Y59C). Kind of test: HLA class II binding assay, purified HLA molecules. The conditions noted are these: Her2/neu DR supertype primary binding, Table XXVIII.

Where no end group is shown, it is not given here.

Consider `CC(C)C[C@H](NC(=O)[C@H](CO)NC(=O)CNC(=O)[C@H](Cc1ccccc1)NC(=O)[C@@H](NC(=O)[C@@H](N)CCCCN)C(C)C)C(=O)N[C@@H](C)C(=O)N[C@@H](Cc1ccccc1)C(=O)N[C@H](C(=O)O)C(C)C` [V2V9], for which the “recognition of wild-type peptide and of tumor targets that endogenously express HER2/neu by the induced CTLs” value in the test with CD8+ T-cells (expanded positive cultures) was “also recognized the target tumor cells”. The “induction of peptide-specific CTL response” value in the test with CD8+ T-cells (normal donors, peptide-pulsed targets) is “induced peptide-specific CTLs”.

SLSFLQDIQEVQGYV [Her2/neu.70] showed an IC50 on DRB1*0301 (DR3) of 5.77 µM.

Regarding `CC[C@H](C)[C@H](NC(=O)[C@H](CCC(=O)O)NC(=O)[C@@H](N)CCCCN)C(=O)N[C@@H](CC(C)C)C(=O)N[C@@H](CC(=O)O)C(=O)N[C@@H](CCC(=O)O)C(=O)N[C@@H](C)C(=O)N[C@@H](Cc1ccc(O)cc1)C(=O)N[C@H](C(=O)N[C@@H](CCSC)C(=O)N[C@@H](C)C(=O)NCC(=O)N[C@H](C(=O)NCC(=O)N[C@@H](CO)C(=O)O)C(C)C)C(C)C` [Her2/neu.765], on DRB1*0401 (DR4w4), the IC50 worked out at 6.16 µM.

For `CSCC[C@H](NC(=O)[C@@H](NC(=O)[C@H](Cc1ccc(O)cc1)NC(=O)[C@H](C)NC(=O)[C@H](CCC(=O)O)NC(=O)[C@@H](N)CC(=O)O)C(C)C)C(=O)N[C@@H](C)C(=O)NCC(=O)N[C@H](C(=O)NCC(=O)N[C@@H](CO)C(=O)N1CCC[C@H]1C(=O)N[C@@H](Cc1ccc(O)cc1)C(=O)N[C@H](C(=O)N[C@@H](CO)C(=O)O)C(C)C)C(C)C` [Her2/neu.769], the results for the IC50 on DRB1*0401 (DR4w4) and at DRB1*0101 (DR1) were 0.196 µM and 0.1 µM, respectively.

In turn, `CSCC[C@H](NC(=O)[C@H](CCCNC(=N)N)NC(=O)[C@H](CO)NC(=O)[C@H](Cc1ccccc1)NC(=O)[C@H](CCC(=O)O)NC(=O)[C@H](CO)NC(=O)[C@@H](NC(=O)[C@H](CC(C)C)NC(=O)[C@H](CCC(=O)O)NC(=O)[C@H](CCCNC(=N)N)NC(=O)[C@@H](N)Cc1ccccc1)C(C)C)C(=O)N[C@@H](C)C(=O)N[C@@H](CCCNC(=N)N)C(=O)N[C@@H](CC(=O)O)C(=O)N1CCC[C@H]1C(=O)O` [Her2/neu.969] had an IC50 on DRB1*0301 (DR3) of 4.22 µM.
